Experimental data from patent EP4745137A1 (Gluetacs Therapeutics (Shanghai) Co., Ltd., priority 2023, dated 2025).

How the values were obtained:
Format in all cases: cell-based
Conditions in all cases: 24 hours of compound treatment, 50 nM and 500 nM tested (concentration behind the class not stated)
CK1α = molecular target: T1, CK1α (Homo sapiens, UniProt P48729+Q96SW2); assay: Western-blot assay of substrate protein degradation in hPBMCs, CK1α
T1 construct: endogenous in cells; host or cells: hPBMCs (Milecell Biotechnologies)
T1 sequence (P48729 whole entry): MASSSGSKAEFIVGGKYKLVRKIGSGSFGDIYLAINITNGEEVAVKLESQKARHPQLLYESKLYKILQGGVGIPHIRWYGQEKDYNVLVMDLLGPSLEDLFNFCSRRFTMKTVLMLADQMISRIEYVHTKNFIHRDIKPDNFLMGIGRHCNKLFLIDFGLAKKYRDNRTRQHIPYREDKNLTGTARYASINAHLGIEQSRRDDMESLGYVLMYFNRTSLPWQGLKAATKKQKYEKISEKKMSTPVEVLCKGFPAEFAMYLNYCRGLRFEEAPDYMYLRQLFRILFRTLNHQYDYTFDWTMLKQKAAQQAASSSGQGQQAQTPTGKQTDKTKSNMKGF
T1 sequence (Q96SW2 whole entry): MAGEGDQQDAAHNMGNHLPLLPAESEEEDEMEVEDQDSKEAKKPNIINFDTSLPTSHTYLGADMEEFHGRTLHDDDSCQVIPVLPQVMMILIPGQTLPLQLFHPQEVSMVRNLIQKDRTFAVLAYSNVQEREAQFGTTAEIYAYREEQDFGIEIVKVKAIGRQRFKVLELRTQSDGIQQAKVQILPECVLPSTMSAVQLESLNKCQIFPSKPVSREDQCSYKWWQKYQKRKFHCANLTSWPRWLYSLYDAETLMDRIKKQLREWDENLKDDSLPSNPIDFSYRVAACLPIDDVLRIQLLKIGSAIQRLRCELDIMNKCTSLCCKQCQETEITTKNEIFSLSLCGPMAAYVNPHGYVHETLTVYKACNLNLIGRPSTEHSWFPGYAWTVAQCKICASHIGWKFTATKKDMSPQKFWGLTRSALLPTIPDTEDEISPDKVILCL
T1 sequence (Q16531 whole entry partner): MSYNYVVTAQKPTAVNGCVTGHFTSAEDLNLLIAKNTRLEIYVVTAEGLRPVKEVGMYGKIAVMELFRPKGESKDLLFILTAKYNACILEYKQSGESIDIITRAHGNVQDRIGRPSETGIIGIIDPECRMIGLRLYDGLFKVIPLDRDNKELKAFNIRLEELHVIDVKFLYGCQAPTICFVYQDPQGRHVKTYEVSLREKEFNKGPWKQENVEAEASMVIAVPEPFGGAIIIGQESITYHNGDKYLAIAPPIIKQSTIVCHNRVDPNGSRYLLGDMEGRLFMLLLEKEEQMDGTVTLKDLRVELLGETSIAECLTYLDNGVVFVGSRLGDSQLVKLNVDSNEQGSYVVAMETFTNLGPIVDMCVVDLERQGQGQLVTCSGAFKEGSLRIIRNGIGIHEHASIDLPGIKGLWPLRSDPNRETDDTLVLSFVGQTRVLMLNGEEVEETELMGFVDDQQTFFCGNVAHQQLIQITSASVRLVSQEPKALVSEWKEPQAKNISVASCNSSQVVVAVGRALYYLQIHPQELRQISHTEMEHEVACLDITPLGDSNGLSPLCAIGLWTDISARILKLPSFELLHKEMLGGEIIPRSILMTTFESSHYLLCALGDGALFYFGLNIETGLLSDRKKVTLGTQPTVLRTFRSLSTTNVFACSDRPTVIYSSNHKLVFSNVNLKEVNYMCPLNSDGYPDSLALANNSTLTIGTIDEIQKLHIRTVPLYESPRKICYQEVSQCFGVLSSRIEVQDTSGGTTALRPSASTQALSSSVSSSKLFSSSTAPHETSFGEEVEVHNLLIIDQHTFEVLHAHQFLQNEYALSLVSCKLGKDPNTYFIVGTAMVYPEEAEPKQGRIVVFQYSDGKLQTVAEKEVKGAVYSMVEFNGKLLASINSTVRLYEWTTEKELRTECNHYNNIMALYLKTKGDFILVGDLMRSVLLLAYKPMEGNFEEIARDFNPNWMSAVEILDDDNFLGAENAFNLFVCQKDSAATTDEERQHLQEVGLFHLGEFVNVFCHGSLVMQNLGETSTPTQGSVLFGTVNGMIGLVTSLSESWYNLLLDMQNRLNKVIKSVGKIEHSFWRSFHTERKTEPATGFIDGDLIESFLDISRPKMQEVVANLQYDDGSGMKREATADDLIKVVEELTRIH

GSPT1 = molecular target: T2, GSPT1 (Homo sapiens, UniProt P15170+Q96SW2); assay: Western-blot assay of substrate protein degradation in hPBMCs, GSPT1
T2 construct: endogenous in cells; host or cells: hPBMCs (Milecell Biotechnologies)
T2 sequence (P15170 whole entry): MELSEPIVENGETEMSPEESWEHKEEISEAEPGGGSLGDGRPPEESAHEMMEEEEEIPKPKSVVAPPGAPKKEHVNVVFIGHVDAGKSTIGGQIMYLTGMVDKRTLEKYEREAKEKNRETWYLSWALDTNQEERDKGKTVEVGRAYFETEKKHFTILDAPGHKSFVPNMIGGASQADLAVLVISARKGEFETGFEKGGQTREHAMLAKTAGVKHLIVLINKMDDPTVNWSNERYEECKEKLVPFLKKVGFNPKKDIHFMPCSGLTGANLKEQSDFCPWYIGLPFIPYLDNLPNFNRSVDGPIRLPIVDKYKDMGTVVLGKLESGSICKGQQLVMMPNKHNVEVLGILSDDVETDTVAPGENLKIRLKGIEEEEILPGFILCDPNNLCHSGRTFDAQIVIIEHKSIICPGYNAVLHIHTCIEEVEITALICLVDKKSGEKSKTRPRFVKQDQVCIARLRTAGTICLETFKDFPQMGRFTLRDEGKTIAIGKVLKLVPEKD
T2 sequence (Q96SW2 whole entry): as the sequence (Q96SW2 whole entry) above
T2 sequence (Q16531 whole entry partner): as the sequence (Q16531 whole entry partner) above

IKZF3 = molecular target: T3, IKZF3 (Homo sapiens, UniProt Q96SW2+Q9UKT9); assay: Western-blot assay of substrate protein degradation in hPBMCs, IKZF3
T3 construct: endogenous in cells; host or cells: hPBMCs (Milecell Biotechnologies)

WEE1 = molecular target: T4, WEE1 (Homo sapiens, UniProt P30291+Q96SW2); assay: Western-blot assay of substrate protein degradation in hPBMCs, WEE1
T4 construct: endogenous in cells; host or cells: hPBMCs (Milecell Biotechnologies)
T4 sequence (P30291 whole entry): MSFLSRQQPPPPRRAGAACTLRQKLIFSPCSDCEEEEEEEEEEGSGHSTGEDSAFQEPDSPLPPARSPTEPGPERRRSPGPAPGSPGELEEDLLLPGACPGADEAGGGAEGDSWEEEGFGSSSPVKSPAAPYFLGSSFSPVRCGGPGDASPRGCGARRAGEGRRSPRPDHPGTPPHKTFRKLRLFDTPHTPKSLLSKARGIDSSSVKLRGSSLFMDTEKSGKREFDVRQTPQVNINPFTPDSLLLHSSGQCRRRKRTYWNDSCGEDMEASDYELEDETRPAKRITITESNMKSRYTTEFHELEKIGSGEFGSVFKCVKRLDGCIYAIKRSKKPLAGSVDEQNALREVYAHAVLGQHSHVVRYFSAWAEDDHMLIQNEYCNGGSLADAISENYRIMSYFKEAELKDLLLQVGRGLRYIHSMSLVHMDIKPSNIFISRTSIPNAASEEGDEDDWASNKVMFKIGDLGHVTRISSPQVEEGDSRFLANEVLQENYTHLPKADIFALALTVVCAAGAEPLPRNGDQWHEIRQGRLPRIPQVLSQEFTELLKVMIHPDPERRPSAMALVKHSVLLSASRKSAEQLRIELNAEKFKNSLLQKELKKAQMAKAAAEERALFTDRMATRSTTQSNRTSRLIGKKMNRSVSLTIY
T4 sequence (Q96SW2 whole entry): as the sequence (Q96SW2 whole entry) above
T4 sequence (Q16531 whole entry partner): as the sequence (Q16531 whole entry partner) above

IKZF1 = molecular target: T5, IKZF1 (Homo sapiens, UniProt Q13422+Q96SW2); assay: Western-blot assay of substrate protein degradation in hPBMCs, IKZF1
T5 construct: endogenous in cells; host or cells: hPBMCs (Milecell Biotechnologies)
T5 sequence (Q13422 whole entry): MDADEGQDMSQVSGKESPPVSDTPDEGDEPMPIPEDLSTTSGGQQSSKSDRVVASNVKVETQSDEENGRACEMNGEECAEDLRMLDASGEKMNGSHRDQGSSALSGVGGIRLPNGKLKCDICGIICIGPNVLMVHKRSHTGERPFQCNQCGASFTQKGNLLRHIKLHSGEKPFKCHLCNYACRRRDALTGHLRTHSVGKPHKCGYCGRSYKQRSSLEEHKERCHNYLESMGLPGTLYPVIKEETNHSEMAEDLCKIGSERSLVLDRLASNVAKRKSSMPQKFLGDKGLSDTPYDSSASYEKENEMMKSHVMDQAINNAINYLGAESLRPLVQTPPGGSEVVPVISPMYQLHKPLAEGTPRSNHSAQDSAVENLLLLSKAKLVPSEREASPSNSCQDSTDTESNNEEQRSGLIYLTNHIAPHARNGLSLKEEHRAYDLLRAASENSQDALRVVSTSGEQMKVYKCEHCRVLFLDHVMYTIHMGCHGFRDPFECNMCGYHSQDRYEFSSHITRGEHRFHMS
T5 sequence (Q96SW2 whole entry): as the sequence (Q96SW2 whole entry) above
T5 sequence (Q16531 whole entry partner): as the sequence (Q16531 whole entry partner) above

IKZF2 = molecular target: T6, IKZF2 (Homo sapiens, UniProt Q96SW2+Q9UKS7); assay: Western-blot assay of substrate protein degradation in hPBMCs, IKZF2
T6 construct: endogenous in cells; host or cells: hPBMCs (Milecell Biotechnologies)
T6 sequence (Q9UKS7 whole entry): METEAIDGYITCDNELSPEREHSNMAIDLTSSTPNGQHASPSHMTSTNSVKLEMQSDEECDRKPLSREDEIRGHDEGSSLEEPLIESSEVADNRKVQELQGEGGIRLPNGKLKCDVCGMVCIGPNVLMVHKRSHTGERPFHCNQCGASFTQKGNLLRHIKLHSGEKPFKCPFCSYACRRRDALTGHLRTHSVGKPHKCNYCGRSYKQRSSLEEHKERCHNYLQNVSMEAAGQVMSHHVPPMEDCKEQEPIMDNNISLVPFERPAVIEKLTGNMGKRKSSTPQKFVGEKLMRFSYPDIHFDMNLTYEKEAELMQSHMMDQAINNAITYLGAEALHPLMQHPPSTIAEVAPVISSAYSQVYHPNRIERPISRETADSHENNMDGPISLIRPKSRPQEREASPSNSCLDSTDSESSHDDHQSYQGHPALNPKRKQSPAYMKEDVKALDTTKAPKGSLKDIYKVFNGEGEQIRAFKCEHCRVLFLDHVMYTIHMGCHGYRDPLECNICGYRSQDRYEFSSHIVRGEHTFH
T6 sequence (Q96SW2 whole entry): as the sequence (Q96SW2 whole entry) above
T6 sequence (Q16531 whole entry partner): as the sequence (Q16531 whole entry partner) above

Row | Structure (SMILES) | CK1a substrate protein remaining % (CK1α) | GSPT1 substrate protein remaining % (GSPT1) | IKZF3 substrate protein remaining % (IKZF3) | Weel substrate protein remaining % (WEE1) | IKZF 1 substrate protein remaining % (IKZF1) | IKZF2 substrate protein remaining % (IKZF2)
1 | O=C1CCC(N2C(=O)c3ccc(CN4CCN(c5ccc(Cl)cn5)CC4)cc3C2=O)C(=O)N1 (stereo not drawn) [GT-06524, 5-((4-(5-chloropyridin-2-yl)piperazin-1-yl)methyl)-2-(2,6-dioxopiperidin-3-yl)isoindoline-1,3-dione] | B (80%< substrate protein remaining %≤ 100%) | A (0% ≤ substrate protein remaining % ≤ 80%) | B (80%< substrate protein remaining %≤ 100%) | B (80%< substrate protein remaining %≤ 100%) | A (0% ≤ substrate protein remaining % ≤ 80%) | B (80%< substrate protein remaining %≤ 100%)
2 | O=C1CCC(N2C(=O)c3ccc(CN4CCN(c5cc(Cl)ccn5)CC4)cc3C2=O)C(=O)N1 (stereo not drawn) [GT-06525, 5-((4-(4-chloropyridin-2-yl)piperazin-1-yl)methyl)-2-(2,6-dioxopiperidin-3-yl)isoindoline-1,3-dione] | B (80%< substrate protein remaining %≤ 100%) | A (0% ≤ substrate protein remaining % ≤ 80%) | A (0% ≤ substrate protein remaining % ≤ 80%) | A (0% ≤ substrate protein remaining % ≤ 80%) | B (80%< substrate protein remaining %≤ 100%) | A (0% ≤ substrate protein remaining % ≤ 80%)
3 | O=C1CCC(N2C(=O)c3ccc(CN4CCN(c5ncccc5F)CC4)cc3C2=O)C(=O)N1 (stereo not drawn) [GT-06526, 2-(2,6-dioxopiperidin-3-yl)-5-((4-(3-fluoropyridin-2-yl)piperazin-1-yl)methyl)isoindoline-1,3-dione] | B (80%< substrate protein remaining %≤ 100%) | A (0% ≤ substrate protein remaining % ≤ 80%) | A (0% ≤ substrate protein remaining % ≤ 80%) | A (0% ≤ substrate protein remaining % ≤ 80%) | B (80%< substrate protein remaining %≤ 100%) | A (0% ≤ substrate protein remaining % ≤ 80%)
4 | O=C1CCC(N2C(=O)c3ccc(CN4CCN(c5cccc(F)n5)CC4)cc3C2=O)C(=O)N1 (stereo not drawn) [GT-06527, 2-(2,6-dioxopiperidin-3-yl)-5-((4-(6-fluoropyridin-2-yl)piperazin-1-yl)methyl)isoindoline-1,3-dione] | B (80%< substrate protein remaining %≤ 100%) | A (0% ≤ substrate protein remaining % ≤ 80%) | A (0% ≤ substrate protein remaining % ≤ 80%) | A (0% ≤ substrate protein remaining % ≤ 80%) | B (80%< substrate protein remaining %≤ 100%) | A (0% ≤ substrate protein remaining % ≤ 80%)
5 | O=C1CCC(N2C(=O)c3ccc(CN4CCN(c5ccc(F)cn5)CC4)cc3C2=O)C(=O)N1 (stereo not drawn) [GT-06528, 2-(2,6-dioxopiperidin-3-yl)-5-((4-(5-fluoropyridin-2-yl)piperazin-1-yl)methyl)isoindoline-1,3-dione] | B (80%< substrate protein remaining %≤ 100%) | A (0% ≤ substrate protein remaining % ≤ 80%) | A (0% ≤ substrate protein remaining % ≤ 80%) | A (0% ≤ substrate protein remaining % ≤ 80%) | B (80%< substrate protein remaining %≤ 100%) | A (0% ≤ substrate protein remaining % ≤ 80%)
6 | O=C1CCC(N2C(=O)c3ccc(CN4CCN(c5ncccc5C(F)(F)F)CC4)cc3C2=O)C(=O)N1 (stereo not drawn) [GT-06529, 2-(2,6-dioxopiperidin-3-yl)-5-((4-(3-(trifluoromethyl)pyridin-2-yl)piperazin-1-yl)methyl)isoindoline-1,3-dione] | B (80%< substrate protein remaining %≤ 100%) | A (0% ≤ substrate protein remaining % ≤ 80%) | A (0% ≤ substrate protein remaining % ≤ 80%) | A (0% ≤ substrate protein remaining % ≤ 80%) | B (80%< substrate protein remaining %≤ 100%) | A (0% ≤ substrate protein remaining % ≤ 80%)
7 | O=C1CCC(N2C(=O)c3ccc(CN4CCN(c5cccc(C(F)(F)F)n5)CC4)cc3C2=O)C(=O)N1 (stereo not drawn) [GT-06530, 2-(2,6-dioxopiperidin-3-yl)-5-((4-(6-(trifluoromethyl)pyridin-2-yl)piperazin-1-yl)methyl)isoindoline-1,3-dione] | B (80%< substrate protein remaining %≤ 100%) | A (0% ≤ substrate protein remaining % ≤ 80%) | B (80%< substrate protein remaining %≤ 100%) | B (80%< substrate protein remaining %≤ 100%) | B (80%< substrate protein remaining %≤ 100%) | B (80%< substrate protein remaining %≤ 100%)
8 | O=C1CCC(N2C(=O)c3ccc(CN4CCN(c5ccc(C(F)(F)F)cn5)CC4)cc3C2=O)C(=O)N1 (stereo not drawn) [GT-06531, 2-(2,6-dioxopiperidin-3-yl)-5-((4-(5-(trifluoromethyl)pyridin-2-yl)piperazin-1-yl)methyl)isoindoline-1,3-dione] | B (80%< substrate protein remaining %≤ 100%) | A (0% ≤ substrate protein remaining % ≤ 80%) | B (80%< substrate protein remaining %≤ 100%) | B (80%< substrate protein remaining %≤ 100%) | B (80%< substrate protein remaining %≤ 100%) | B (80%< substrate protein remaining %≤ 100%)
9 | O=C1CCC(N2C(=O)c3ccc(CN4CCN(c5ncc(Cl)cc5Cl)CC4)cc3C2=O)C(=O)N1 (stereo not drawn) [GT-06532, 5-((4-(3,5-dichloropyridin-2-yl)piperazin-1-yl)methyl)-2-(2,6-dioxopiperidin-3-yl)isoindoline-1,3-dione] | B (80%< substrate protein remaining %≤ 100%) | A (0% ≤ substrate protein remaining % ≤ 80%) | B (80%< substrate protein remaining %≤ 100%) | B (80%< substrate protein remaining %≤ 100%) | B (80%< substrate protein remaining %≤ 100%) | B (80%< substrate protein remaining %≤ 100%)
10 | O=C1CCC(N2C(=O)c3ccc(CN4CCN(c5nccc(I)c5F)CC4)cc3C2=O)C(=O)N1 (stereo not drawn) [GT-06533, 2-(2,6-dioxopiperidin-3-yl)-5-((4-(3-fluoro-4-iodopyridin-2-yl)piperazin-1-yl)methyl)isoindoline-1,3-dione] | B (80%< substrate protein remaining %≤ 100%) | A (0% ≤ substrate protein remaining % ≤ 80%) | B (80%< substrate protein remaining %≤ 100%) | B (80%< substrate protein remaining %≤ 100%) | B (80%< substrate protein remaining %≤ 100%) | B (80%< substrate protein remaining %≤ 100%)
11 | O=C1CCC(N2C(=O)c3ccc(CN4CCN(c5ccnc(Cl)c5Cl)CC4)cc3C2=O)C(=O)N1 (stereo not drawn) [GT-06534, 5-((4-(2,3-dichloropyridin-4-yl)piperazin-1-yl)methyl)-2-(2,6-dioxopiperidin-3-yl)isoindoline-1,3-dione] | B (80%< substrate protein remaining %≤ 100%) | A (0% ≤ substrate protein remaining % ≤ 80%) | B (80%< substrate protein remaining %≤ 100%) | B (80%< substrate protein remaining %≤ 100%) | B (80%< substrate protein remaining %≤ 100%) | B (80%< substrate protein remaining %≤ 100%)
12 | O=C1CCC(N2C(=O)c3ccc(CN4CCN(c5ccnc(F)c5F)CC4)cc3C2=O)C(=O)N1 (stereo not drawn) [GT-06535, 5-((4-(2,3-difluoropyridin-4-yl)piperazin-1-yl)methyl)-2-(2,6-dioxopiperidin-3-yl)isoindoline-1,3-dione] | B (80%< substrate protein remaining %≤ 100%) | B (80%< substrate protein remaining %≤ 100%) | A (0% ≤ substrate protein remaining % ≤ 80%) | B (80%< substrate protein remaining %≤ 100%) | B (80%< substrate protein remaining %≤ 100%) | A (0% ≤ substrate protein remaining % ≤ 80%)
13 | O=C1CCC(N2C(=O)c3ccc(CN4CCN(c5c(Cl)ccnc5Cl)CC4)cc3C2=O)C(=O)N1 (stereo not drawn) [GT-06552, 5-((4-(2,4-dichloropyridin-3-yl)piperazin-1-yl)methyl)-2-(2,6-dioxopiperidin-3-yl)isoindoline-1,3-dione] | B (80%< substrate protein remaining %≤ 100%) | A (0% ≤ substrate protein remaining % ≤ 80%) | B (80%< substrate protein remaining %≤ 100%) | B (80%< substrate protein remaining %≤ 100%) | B (80%< substrate protein remaining %≤ 100%) | A (0% ≤ substrate protein remaining % ≤ 80%)
